# What was measured:
# [1] = biological target: T1, human recombinant PRMT9 (Homo sapiens, UniProt Q6P2P2); assay: AlphaLISA PRMT9 activity assay (modified BPS kit, biotinylated SF3B2 peptide); type: biochemical; conditions: PRMT9 0.105 μM, biotinylated SF3B2 (500–519) peptide 100 nM, SAM 25 μM
# T1 construct: human recombinant PRMT9 (2–845; N-terminal FLAG-tag, C-terminal His6-tag); FLAG (N); His6 (C); purchased BPS BioScience 79124
# T1 sequence (Q6P2P2 2-845): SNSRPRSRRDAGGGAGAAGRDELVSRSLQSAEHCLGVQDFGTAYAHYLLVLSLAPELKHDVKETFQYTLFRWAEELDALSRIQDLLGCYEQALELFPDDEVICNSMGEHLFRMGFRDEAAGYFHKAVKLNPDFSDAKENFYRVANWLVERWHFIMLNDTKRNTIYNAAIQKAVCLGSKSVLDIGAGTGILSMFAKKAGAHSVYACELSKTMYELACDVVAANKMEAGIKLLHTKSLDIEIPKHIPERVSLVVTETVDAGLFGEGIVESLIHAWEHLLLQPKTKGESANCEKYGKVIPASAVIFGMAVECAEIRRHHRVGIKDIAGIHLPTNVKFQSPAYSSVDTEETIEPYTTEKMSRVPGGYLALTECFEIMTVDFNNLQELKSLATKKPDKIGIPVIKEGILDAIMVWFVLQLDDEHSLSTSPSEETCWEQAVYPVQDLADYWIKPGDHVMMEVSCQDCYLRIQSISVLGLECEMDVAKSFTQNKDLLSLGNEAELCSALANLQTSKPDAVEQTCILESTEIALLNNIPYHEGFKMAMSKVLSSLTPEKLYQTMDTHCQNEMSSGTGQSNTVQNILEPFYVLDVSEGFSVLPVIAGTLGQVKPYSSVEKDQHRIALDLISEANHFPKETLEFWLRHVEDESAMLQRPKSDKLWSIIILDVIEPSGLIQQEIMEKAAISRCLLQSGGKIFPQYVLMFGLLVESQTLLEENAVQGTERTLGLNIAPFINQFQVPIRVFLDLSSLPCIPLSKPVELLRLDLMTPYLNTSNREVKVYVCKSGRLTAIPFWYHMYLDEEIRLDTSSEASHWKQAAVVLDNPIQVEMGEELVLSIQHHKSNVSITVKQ
# Method: Accordingly, all the enzymatic inhibition data were obtained by performing the assays in these optimized conditions.
# The reaction was incubated for 60 min. Afterward, in each well, 5 μL of a 1:100 dilution of Primary antibody 28 (BPS BioScience, #52140Z3) in Detection buffer (BPS BioScience) and 5 μL of anti-Rabbit acceptor beads (PerkinElmer, #AL104C) were added to obtain a final concentration of 20 μg/mL.
# For each incubation step, the OptiPlate was sealed with a protective foil to prevent evaporation and contamination. Donor and Acceptor beads were added to the mixture in subdued light.
# The 100% activity (positive control) was reached using vehicle (DMSO), while 0% activity (negative control) was obtained without the protein. Data were analyzed by using Excel and Prism software. Values obtained for each compound are mean ± SD determined for three separate experiments.
# [2] = tested on: CePRMT9; assay: Radioisotope-based assay (SDS-PAGE, fluorography, densitometry), CePRMT9; type: biochemical, Caenorhabditis elegans; conditions: substrate GST-CeSFTB-2 (99–248), 25 °C
# Method: Based on these outcomes, we resolved to explore the effect on the capability to inhibit PRMT9 enzymatic activity of further reduction of the distance between the pharmacophoric moieties. […] After the experiment was repeated with 100, 250, and 500 μM concentrations of each inhibitor, half inhibition was observed only at a concentration of roughly 250 μM (Figure 4d).
# […]. The experiments were performed as reported in the Experimental procedures section. GST-HsPRMT9 (a) and GST-HsPRMT7 (b) were incubated with human GST-SF3B2 (401–550) peptide or recombinant HsH2B, respectively (1 μg of enzyme, 5 μg of substrate), 0.14 μM [^3H]SAM, and the indicated concentrations of tested compounds at the corresponding optimal reaction temperature (37 °C for HsPRMT9, 15 °C for HsPRMT7). C. elegans GST-tagged enzymes PRMT9 (c) and PRMT7 (d) were incubated with GST-CeSFTB-2 (99–248) fragment or recombinant HsH2B, respectively (1 μg of enzyme, 5 μg of substrate), 0.14 μM [^3H]SAM, and the indicated concentrations of tested compounds at the corresponding optimal reaction temperature (25 °C for CePRMT9, 15 °C for CePRMT7). After SDS-PAGE, the gels were treated as previously described[48] and densitometry analysis was done using ImageJ software, and data was plotted as normalized activity to the no inhibitor controls.
# Human PRMT9, C. elegans PRMT9, human PRMT7, and C. elegans PRMT7 plasmids were sequenced, expressed in E. coli as GST-fusion proteins, and purified as previously described.[48] Substrates were also sequenced and purified as described [human GST-SF3B2 (401–550);[13]C. elegans SFTB-2;[48] human histone H2B (New England Biolabs, M2505S)]. Xenopus laevis histone H2B was expressed in E. coli and purified similarly to what was previously reported by Luger et al.[72]
# Reactions consisting of approximately 1 μg of enzyme (human or C. elegans GST-tagged enzymes PRMT9 and PRMT7), reacted with approximately 5 μg of substrate [for human PRMT9, human GST-SF3B2 401–550 fragment; C. elegans PRMT9 with C. elegans GST-SFTB-2 (99–248) fragment, or recombinant human histone H2B from New England Biolabs (M2505S)], were incubated for the indicated time in reaction buffer {50 mM potassium HEPES buffer, 10 mM NaCl, 1 mM dithiothreitol (DTT), pH 8.0 with 0.7 μM S-adenosyl-L-[methyl-^3H]methionine (^3H-AdoMet, PerkinElmer Life Sciences, 82.7 Ci/mmol, 0.55 mCi/mL in 10 mM H2SO4/EtOH [9:1 (v/v)])} in a final reaction volume of 60 μL. Each reaction was incubated at the corresponding optimal reaction temperature (37 °C for human PRMT9, 25 °C for C. elegans PRMT9, and 15 °C for C. elegans and human PRMT7 enzymes. MTA was dissolved in water, and a wavelength scan was taken to determine the final concentration using the extinction coefficient. The final concentrations used are indicated in the figure legends. […]. EML734, EML736, and EML709 were also dissolved in DMSO, and further dilutions were made in DMSO for the working stocks. For controls, no inhibitor reactions were created by the addition of the respective solvent (water for MTA and DMSO for EPZ015666 and EML inhibitors).
# After the reaction incubations with the various concentrations of inhibitors, the reactions were quenched by adding 0.2 volume of 5× SDS sample loading buffer, and subsequently, the reactions were run on a 12.6% polyacrylamide Tris gel. To collect the radioactive signal, the gels were then treated in the same way as previously described.[48]
# After various exposures were collected to ensure linear detection, densitometry analysis was done using ImageJ software, and data were plotted as normalized activity to the no inhibitor controls.
SMILES,IC50 [1] [nM],% CePRMT9 residual activity ([2]; 5 uM) [%],% CePRMT9 residual activity ([2]; 25 uM) [%],% CePRMT9 residual activity ([2]; 50 uM) [%],% CePRMT9 residual activity ([2]; 100 uM) [%]
COC(=O)c1cc(O)c2cc(NC(=O)NCCCNC(=N)NC[C@H]3O[C@@H](n4cnc5c(N)ncnc54)[C@H](O)[C@@H]3O)ccc2c1 [1a],890,106.32,67.30,31.52,19.47
COC(=O)c1cc(O)c2cc(NC(=O)NCCCCNC(=N)NC[C@H]3O[C@@H](n4cnc5c(N)ncnc54)[C@H](O)[C@@H]3O)ccc2c1 [1b],1320,114.11,95.80,52.55,39.17
COC(=O)c1cc(O)c2cc(NC(=O)NCCCCCNC(=N)NC[C@H]3O[C@@H](n4cnc5c(N)ncnc54)[C@H](O)[C@@H]3O)ccc2c1 [1c],5800,110.89,81.62,50.08,12.31
"COC(=O)c1cc(O)c2cc(NC(=O)NCCCNC(=N)NC[C@H]3O[C@@H](n4cnc5c(N)ncnc54)[C@H](O)[C@@H]3O)cc(C(F)(F)F)c2c1 [1j, Methyl 6-(3-(3-(3-(((2R,3S,4R,5R)-5-(6-Amino-9H-purin-9-yl)-3,4-dihydroxytetrahydrofuran-2-yl)methyl)guanidino)propyl)ureido)-4-hydroxy-8-(trifluoromethyl)-2-naphthoate]",200,,,,

# Source: article PMC10578352, “Identification of a Protein Arginine Methyltransferase 7 (PRMT7)/Protein Arginine Methyltransferase 9 (PRMT9) Inhibitor” (Journal of Medicinal Chemistry, 2023)
